Data as given in patent publication US5466688A, “Pyrido[3,4-B]indole derivatives as serotonergic agents” (American Home Products Corporation, priority 1994, dated 1995).

Key:
[1] = target: T1, 5-HT1A serotonin receptor (Rattus norvegicus, UniProt P19327); assay: 5-HT1A receptor binding: displacement of [3H] 8-OHDPAT; conditions: procedure of Hall et al.
T1 construct: following the procedure of Hall et al., J. Neurochem; 44 1685 (1985); from tissue
T1 sequence (P19327 1-422): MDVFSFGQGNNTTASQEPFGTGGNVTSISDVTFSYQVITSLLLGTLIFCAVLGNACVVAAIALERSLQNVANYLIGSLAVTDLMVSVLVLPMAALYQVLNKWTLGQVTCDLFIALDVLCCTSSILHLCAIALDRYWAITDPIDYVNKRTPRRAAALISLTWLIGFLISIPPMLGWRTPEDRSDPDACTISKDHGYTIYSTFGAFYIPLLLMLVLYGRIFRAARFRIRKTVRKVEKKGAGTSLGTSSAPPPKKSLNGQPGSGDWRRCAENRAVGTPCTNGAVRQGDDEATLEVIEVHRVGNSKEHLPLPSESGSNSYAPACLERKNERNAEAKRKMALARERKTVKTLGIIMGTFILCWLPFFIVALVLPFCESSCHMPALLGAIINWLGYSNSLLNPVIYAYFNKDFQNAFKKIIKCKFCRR
Experimental: High affinity for the serotonin 5-HT1A receptor for the compounds of this invention was established by testing them in accordance with the standard pharmacological test procedure in which the compound's ability to displace [^3 H] 8-OHDPAT (dipropylaminotetralin) from the 5-HT1A serotonin receptor was determined following the procedure of Hall et al., J. Neurochem. 44 1685 (1985). […] The anxiolytic activity of buspirone is believed to be, at least partially, due to its 5-HT1A receptor affinity [VanderMaelen et al., Eur. J. Pharmacol. 1986, 129 (123-130)].

[2] = target: T1, 5-HT1A serotonin receptor; conditions: buspirone, literature (VanderMaelen et al. 1986); cited from earlier work

IC50 [1] [nM] | Structure (SMILES) | affinity for the 5-HT1A serotonin receptor (in words) [2]
37.1 | CN1c2ccccc2[C@@H]2CCN(CCC(C(=O)N3CCCCCC3)c3ccccc3)C[C@H]21 (relative stereo) [Example 3, 1-Azepan-1-yl-4-((trans)-9-methyl-1,3,4,4a,9,9a-hexahydro-2H-pyrido[3,4-b]indol-2-yl)-2-phenyl-butan-1-one] | –
67.4 | O=C(C(CCN1CC[C@H]2c3ccccc3N[C@H]2C1)c1ccccc1)N1CCCCCC1 (relative stereo) [Example 4, 1-Azepan-1-yl-4-((cis)-1,3,4,4a,9,9a-hexahydro-2H-pyrido[3,4-b]indol-2-yl)-2-phenyl-butan-1-one] | –

The next lines start with the molecule.

Structure (SMILES) | IC50 [1] [nM] | affinity for the 5-HT1A serotonin receptor (in words) [2]
O=C(C(CCN1CCc2c([nH]c3ccccc23)C1)c1ccccc1)N1CCCCCC1 (centres unmarked) [Example 1, 1-Azepan-1-yl-2-phenyl-4-(1,3,4,9-tetrahydro-2H-pyrido[3.4-b]indol-2-yl]-butan-1-one] | 30.9 | –
Cn1c2c(c3ccccc31)CCN(CCC(C(=O)N1CCCCCC1)c1ccccc1)C2 (centres unmarked) [Example 2, 1-Azepan-1-yl-4-(9-methyl-1,3,4,9-tetrahydro-2H-pyrido[3.4-b]-indol-2-yl]-2-phenyl-butan-1-one] | 33.3 | –
O=C1CC2(CCCC2)CC(=O)N1CCCCN1CCN(c2ncccn2)CC1 [buspirone] | – | potent affinity
